Values of other authors in US9374996B2, “Agroformulation comprising copolymer of acrylic acid, poly(alkylene glycol) (meth)acrylate, and alkyl (meth)acrylate” (priority 2012, dated 2016).
Values after ≈ are worked out from the molar mass of the structure shown.

Details: at 20° C.

Cn1cc(C(=O)Nc2ccccc2-c2cc(F)c(F)c(F)c2)c(C(F)F)n1 [fluxapyroxad]
solubility in water: 3.88 µg/mL (≈ 10.2 µM)
